A value given as a limit tells only on which side of the number the result lay.

Usually IC50 stands for the point on the concentration scale where inhibition reaches its midpoint.

One assay has as its target T1, MLLT1 (Homo sapiens, UniProt Q03111).
T1 construct: host or cells: MV4-11
T1 sequence (Q03111 1-559): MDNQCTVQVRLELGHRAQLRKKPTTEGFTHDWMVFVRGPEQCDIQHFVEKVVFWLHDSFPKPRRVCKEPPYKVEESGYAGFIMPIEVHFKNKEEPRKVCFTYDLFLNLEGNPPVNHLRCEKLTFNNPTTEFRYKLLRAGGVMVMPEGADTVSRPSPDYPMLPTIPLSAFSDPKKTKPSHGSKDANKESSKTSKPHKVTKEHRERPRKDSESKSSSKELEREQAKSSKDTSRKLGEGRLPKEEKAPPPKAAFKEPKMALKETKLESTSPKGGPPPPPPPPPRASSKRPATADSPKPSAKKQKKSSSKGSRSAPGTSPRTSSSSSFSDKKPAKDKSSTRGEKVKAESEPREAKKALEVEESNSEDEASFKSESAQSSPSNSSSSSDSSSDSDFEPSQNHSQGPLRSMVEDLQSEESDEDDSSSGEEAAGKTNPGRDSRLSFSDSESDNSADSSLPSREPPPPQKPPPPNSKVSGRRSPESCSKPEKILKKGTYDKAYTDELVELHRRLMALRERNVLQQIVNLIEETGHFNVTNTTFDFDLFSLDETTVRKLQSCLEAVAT
Put plainly: MLLT1 degradation assay in MV4-11 cells (JESS chemiluminescent detection), three concentrations, 24 h. The assay is classed as cell-based. The following applies: with respect to DMSO control. In outline:
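MV4-11 cells treated 24 h at 37° C, 5% CO2 with 1000, 100 and 10 nM compound (0.1% DMSO final). MLLT1 quantified by automated capillary chemiluminescent immunodetection; band peak area expressed as % degradation relative to DMSO control.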

A further assay relates to MV4-11 cells. Nature of the assay: MV4-11 cellular proliferative assay, Assay Format B (CTG 2.0, 168 h). Conditions: Homo sapiens, 168 h (7 days), CTG 2.0, read-out: IC50 (MV4-11 cellular proliferative assay, Assay format B). It is filed as cell-based. The essentials:
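MV4-11 cells seeded overnight in IMDM + 10% FBS, then exposed to 10-point, 3-fold dilutions from 1 uM or 100 nM top concentration (0.3% DMSO final) for 168 h at 37 °C. CTG 2.0 luminescence read; % viability vs DMSO control fitted by four-parameter logistic regression.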

`CN1CCC[C@@H]1c1cc2cnc(NC(=O)c3ccc(OCCCC#Cc4cccc5c4CN(C4CCC(=O)NC4=O)C5=O)cc3F)cc2[nH]1` (stereo partly drawn) [Example 213, 4-((5-(2-(2,6-dioxopiperidin-3-yl)-1-oxoisoindolin-4-yl)pent-4-yn-1-yl)oxy)-2-fluoro-N-(2-((R)-1-methylpyrrolidin-2-yl)-1H-pyrrolo[3,2-c]pyridin-6-yl)benzamide]: on MLLT1, the “MLLT1% Degradation @ 0.01 μM” value is “A (Category A: A ≥ 75% degradation)”, the “MLLT1% Degradation @ 0.1 μM” value is recorded as “A (Category A: A ≥ 75% degradation)” and the “MLLT1% Degradation @ 1 μM” value is given as “A (Category A: A ≥ 75% degradation)”. The IC50 with MV4-11 cells was at most 100 nM.

As to `CN1CCC[C@@H]1c1cc2cnc(NC(=O)c3ccc(CCCC4CCN(c5cccc6c5CN(C5CCC(=O)NC5=O)C6=O)CC4)cc3)cc2[nH]1` (stereo in doubt) [Example 77, 4-(3-(1-(2-((rel-S)-2,6-dioxopiperidin-3-yl)-1-oxoisoindolin-4-yl)piperidin-4-yl)propyl)-N-(2-((R)-1-methylpyrrolidin-2-yl)-1H-pyrrolo[3,2-c]pyridin-6-yl)benzamide], at MLLT1, the “MLLT1% Degradation @ 0.01 μM” value is given as “A (Category A: A ≥ 75% degradation)”, the “MLLT1% Degradation @ 0.1 μM” value is listed as “A (Category A: A ≥ 75% degradation)” and the “MLLT1% Degradation @ 1 μM” value is “A (Category A: A ≥ 75% degradation)”. Also, the IC50 in the assay with MV4-11 cells is at most 100 nM.

With `CN1CCC[C@@H]1c1cc2cnc(NC(=O)c3ccc(OCCC4CCN(c5cccc6c5CN(C5CCC(=O)NC5=O)C6=O)CC4)cc3F)cc2[nH]1` (stereo in doubt) [Example 172, 4-(2-(1-(2-((rel-S)-2,6-dioxopiperidin-3-yl)-1-oxoisoindolin-4-yl)piperidin-4-yl)ethoxy)-2-fluoro-N-(2-((R)-1-methylpyrrolidin-2-yl)-1H-pyrrolo[3,2-c]pyridin-6-yl)benzamide], on MLLT1, the “MLLT1% Degradation @ 0.01 μM” value was “A (Category A: A ≥ 75% degradation)”, the “MLLT1% Degradation @ 0.1 μM” value was “A (Category A: A ≥ 75% degradation)” and the “MLLT1% Degradation @ 1 μM” value is recorded as “A (Category A: A ≥ 75% degradation)”. For the same molecule, the IC50 in the assay with MV4-11 cells is at most 100 nM.

On to `CN1CCC[C@@H]1c1cc2cnc(NC(=O)c3ccc(-c4cnn(CCCCC#Cc5cccc6c5CN(C5CCC(=O)NC5=O)C6=O)c4)cc3)cc2[nH]1` (stereo partly drawn) [Example 59, 4-(1-(6-(2-(2,6-dioxopiperidin-3-yl)-1-oxoisoindolin-4-yl)hex-5-yn-1-yl)-1H-pyrazol-4-yl)-N-(2-((R)-1-methylpyrrolidin-2-yl)-1H-pyrrolo[3,2-c]pyridin-6-yl)benzamide], for which, on MLLT1, the “MLLT1% Degradation @ 0.01 μM” value was “A (Category A: A ≥ 75% degradation)”, the “MLLT1% Degradation @ 0.1 μM” value is “A (Category A: A ≥ 75% degradation)” and the “MLLT1% Degradation @ 1 μM” value was “B (Category B: 50% ≤ B < 75% degradation)”. Further, the IC50 in the assay on MV4-11 cells was at most 100 nM.

As for `CN1CCC[C@@H]1c1cc2cnc(NC(=O)c3ccc(N4CCC(OC=C=Cc5cccc6c5CN(C5CCC(=O)NC5=O)C6=O)CC4)nc3)cc2[nH]1` (stereo partly drawn) [Example 195, 6-(4-((3-(2-(2,6-dioxopiperidin-3-yl)-1-oxoisoindolin-4-yl)propa-1,2-dien-1-yl)oxy)piperidin-1-yl)-N-(2-((R)-1-methylpyrrolidin-2-yl)-1H-pyrrolo[3,2-c]pyridin-6-yl)nicotinamide], at MLLT1, the “MLLT1% Degradation @ 0.01 μM” value is on record as “A (Category A: A ≥ 75% degradation)”, the “MLLT1% Degradation @ 0.1 μM” value is “B (Category B: 50% ≤ B < 75% degradation)” and the “MLLT1% Degradation @ 1 μM” value is “A (Category A: A ≥ 75% degradation)”. In the assay with MV4-11 cells, the IC50 is at most 100 nM.

Regarding `CN1CCC[C@@H]1c1cc2cnc(NC(=O)c3ccc(OCCN4CCC5(CC4)CCN(c4ccc6c(c4)CN(C4CCC(=O)NC4=O)C6=O)CC5)cc3)cc2[nH]1` (stereo partly drawn) [Example 164, 4-(2-(9-(2-(2,6-dioxopiperidin-3-yl)-1-oxoisoindolin-5-yl)-3,9-diazaspiro[5.5]undecan-3-yl)ethoxy)-N-(2-((R)-1-methylpyrrolidin-2-yl)-1H-pyrrolo[3,2-c]pyridin-6-yl)benzamide], on MLLT1, the “MLLT1% Degradation @ 0.01 μM” value was “A (Category A: A ≥ 75% degradation)”, the “MLLT1% Degradation @ 0.1 μM” value is “A (Category A: A ≥ 75% degradation)” and the “MLLT1% Degradation @ 1 μM” value is listed as “A (Category A: A ≥ 75% degradation)”. The IC50 in the assay with MV4-11 cells is at most 100 nM.

`CN1CCC[C@@H]1c1cc2cnc(NC(=O)c3ccc(CCCCC#Cc4cccc(C(=O)N[C@H]5CCC(=O)NC5=O)n4)cc3)cc2[nH]1` [Example 7, N—((S)-2,6-dioxopiperidin-3-yl)-6-(6-(4-((2-((R)-1-methylpyrrolidin-2-yl)-1H-pyrrolo[3,2-c]pyridin-6-yl)carbamoyl)phenyl)hex-1-yn-1-yl)picolinamide]: on MLLT1, the “MLLT1% Degradation @ 0.01 μM” value is on record as “A (Category A: A ≥ 75% degradation)”, the “MLLT1% Degradation @ 0.1 μM” value is “A (Category A: A ≥ 75% degradation)” and the “MLLT1% Degradation @ 1 μM” value is recorded as “A (Category A: A ≥ 75% degradation)”. Also, the IC50 in the assay on MV4-11 cells is at most 100 nM.

For the molecule `CN1CCC[C@@H]1c1cc2cnc(NC(=O)c3ccc(OC4CCN(CC5CCN(c6ccc7c(c6)C(=O)N(C6CCC(=O)NC6=O)C7=O)CC5)CC4)cc3)cc2[nH]1` (stereo partly drawn) [Example 124, 4-((1-((1-(2-(2,6-dioxopiperidin-3-yl)-1,3-dioxoisoindolin-5-yl)piperidin-4-yl)methyl)piperidin-4-yl)oxy)-N-(2-((R)-1-methylpyrrolidin-2-yl)-1H-pyrrolo[3,2-c]pyridin-6-yl)benzamide], at MLLT1, the “MLLT1% Degradation @ 0.01 μM” value was “B (Category B: 50% ≤ B < 75% degradation)”, the “MLLT1% Degradation @ 0.1 μM” value is reported as “A (Category A: A ≥ 75% degradation)” and the “MLLT1% Degradation @ 1 μM” value was “A (Category A: A ≥ 75% degradation)”. For the same molecule, the IC50 in the assay on MV4-11 cells was at most 100 nM.

In the case of `CN1CCC[C@@H]1c1cc2cnc(NC(=O)c3cnc(N4CCN(CC#Cc5cccc6c5CN(C5CCC(=O)NC5=O)C6=O)CC4)nc3)cc2[nH]1` (stereo partly drawn) [Example 89, 2-(4-(3-(2-(2,6-dioxopiperidin-3-yl)-1-oxoisoindolin-4-yl)prop-2-yn-1-yl)piperazin-1-yl)-N-(2-((R)-1-methylpyrrolidin-2-yl)-1H-pyrrolo[3,2-c]pyridin-6-yl)pyrimidine-5-carboxamide], at MLLT1, the “MLLT1% Degradation @ 0.01 μM” value is reported as “A (Category A: A ≥ 75% degradation)”, the “MLLT1% Degradation @ 0.1 μM” value is given as “A (Category A: A ≥ 75% degradation)” and the “MLLT1% Degradation @ 1 μM” value is “C (Category C: 25% ≤ C < 50% degradation)”. Besides, the IC50 with MV4-11 cells was at most 100 nM.

For `CN1CCC[C@@H]1c1cc2cnc(NC(=O)c3ccc(OC4CCN(CC5CCN(c6cccc7c6C(=O)N(C6CCC(=O)NC6=O)C7=O)CC5)CC4)cc3)cc2[nH]1` (stereo partly drawn) [Example 144, 4-((1-((1-(2-(2,6-dioxopiperidin-3-yl)-1,3-dioxoisoindolin-4-yl)piperidin-4-yl)methyl)piperidin-4-yl)oxy)-N-(2-((R)-1-methylpyrrolidin-2-yl)-1H-pyrrolo[3,2-c]pyridin-6-yl)benzamide], at MLLT1, the “MLLT1% Degradation @ 0.01 μM” value is listed as “B (Category B: 50% ≤ B < 75% degradation)”, the “MLLT1% Degradation @ 0.1 μM” value is “A (Category A: A ≥ 75% degradation)” and the “MLLT1% Degradation @ 1 μM” value was “A (Category A: A ≥ 75% degradation)”. Further, the IC50 with MV4-11 cells is at most 100 nM.

On to `CN1CCC[C@@H]1c1cc2cnc(NC(=O)c3ccc(OCCC4CCN(c5ccc6c(c5)C(=O)N(C5CCC(=O)NC5=O)C6=O)CC4)cc3)cc2[nH]1` (stereo partly drawn) [Example 83, 4-(2-(1-(2-(2,6-dioxopiperidin-3-yl)-1,3-dioxoisoindolin-5-yl)piperidin-4-yl)ethoxy)-N-(2-((R)-1-methylpyrrolidin-2-yl)-1H-pyrrolo[3,2-c]pyridin-6-yl)benzamide], for which, at MLLT1, the “MLLT1% Degradation @ 0.01 μM” value is reported as “A (Category A: A ≥ 75% degradation)”, the “MLLT1% Degradation @ 0.1 μM” value is recorded as “A (Category A: A ≥ 75% degradation)” and the “MLLT1% Degradation @ 1 μM” value is reported as “B (Category B: 50% ≤ B < 75% degradation)”. The IC50 with MV4-11 cells was at most 100 nM.

Consider `CN1CCC[C@@H]1c1cc2cnc(NC(=O)c3ccc(N4CCN(C(=O)CC5CCN(c6cccc7c6CN(C6CCC(=O)NC6=O)C7=O)CC5)CC4)nc3)cc2[nH]1` (stereo partly drawn) [Example 108, 6-(4-(2-(1-(2-(2,6-dioxopiperidin-3-yl)-1-oxoisoindolin-4-yl)piperidin-4-yl)acetyl)piperazin-1-yl)-N-(2-((R)-1-methylpyrrolidin-2-yl)-1H-pyrrolo[3,2-c]pyridin-6-yl)nicotinamide], for which, at MLLT1, the “MLLT1% Degradation @ 0.01 μM” value was “A (Category A: A ≥ 75% degradation)”, the “MLLT1% Degradation @ 0.1 μM” value is “A (Category A: A ≥ 75% degradation)” and the “MLLT1% Degradation @ 1 μM” value is “B (Category B: 50% ≤ B < 75% degradation)”. Further, in the assay with MV4-11 cells, the IC50 was at most 100 nM.
